Assay results taken from US20130158362A1 (INFACARE PHARMACEUTICAL CORPORATION, priority 2011, published 2013).

Tested on: total serum bilirubin (TSB)
Assay: Phase 2b trial: total serum bilirubin (TSB), adjusted and unadjusted, change from baseline
Assay type: in vivo, human
Set-up: total serum bilirubin / total serum bilirubin, Delta (change from baseline) / Change from baseline of total serum bilirubin: unit not given here
Conditions: for change from baseline in adjusted TSB, LS mean difference versus placebo, MMRM / change from baseline in adjusted TSB, LS means (SEM), MMRM: observed case
Procedure: Three cohorts of subjects were recruited. This clinical study was designed to evaluate safety and efficacy parameters in each cohort.
Scheduled assessments (including TSB) occurred before treatment and at 0.75 and 2 hours (or 1.5 and 3 hours, depending on PK blood sampling assignment); 6, 12, 24, 48, and 72 hours; and 14 and 30 (except TSB) days after treatment or early termination.
The primary efficacy endpoint was the change in adjusted TSB from baseline to 48 hours after treatment. The adjusted TSB was a calculation of the percentage variance of the TSB level from the age specific threshold for PT initiation per the AAP Guidelines, i.e., an indication of the distance below the PT threshold by time.
The Secondary Efficacy Endpoints were the change from baseline in unadjusted TSB at 48 hours after treatment, change from baseline in adjusted and unadjusted TSB at various other time points after treatment, percent change from baseline in unadjusted TSB, proportion of subjects who require PT/exchange transfusion (ET), time to PT/ET, duration of PT and time to hospital discharge.
Intent-to-treat population (ITT): Defined as all subjects who were randomly assigned treatment in the clinical study, had received IMP, and had at least 1 post baseline TSB measurement during the first 48 hours after treatment. Subjects were summarized based on randomized treatment.
Analysis of Efficacy Parameters: The primary efficacy analysis applied the analysis of covariance (ANCOVA) method to determine if there was a significant difference between treatment groups in change in adjusted TSB levels from baseline to 48 hours post baseline after controlling for the effects of gestational age and adjusted baseline TSB levels. If assumptions of ANCOVA appeared to be violated, a Wilcoxon rank-sum test could be performed instead. Time-to-event variables were analyzed using the Kaplan-Meier method, and Kaplan-Meier survival curves were presented.

[1] = 4.5 mg/kg IM, 24 h, ITT, LOCF, ANCOVA
[2] = 4.5 mg/kg IM, 48 h/early termination, ITT, LOCF
[3] = 4.5 mg/kg IM, 48 h, ITT, LOCF, ANCOVA
[4] = 4.5 mg/kg IM, 48 hours, intent to treat, preliminary data
[5] = 4.5 mg/kg IM, 72 h, ITT, LOCF, ANCOVA
[6] = 4.5 mg/kg IM, 14 days/early termination, ITT, LOCF
[7] = 4.5 mg/kg IM, 14 days/early termination, ITT, LOCF, ANCOVA
[8] = 4.5 mg/kg versus the placebo group, 48 Hours/Early termination, PP Population, ANCOVA
[9] = 4.5 mg/kg, 48 Hours/Early termination, PP Population, LOCF
[10] = 4.5 mg/kg, 6 hrs, unadjusted TSB, ITT Population
[11] = 4.5 mg/kg, 12 hrs, unadjusted TSB, ITT Population
[12] = 4.5 mg/kg, 24 hrs, unadjusted TSB, ITT Population
[13] = 4.5 mg/kg, 48 hrs, unadjusted TSB, ITT Population
[14] = 4.5 mg/kg, baseline, PP Population
[15] = 4.5 mg/kg, baseline, unadjusted TSB, ITT Population

## tin IV mesoporphyrin IX dichloride [Stannsoporfin]
4.5 mg/kg IM, 24 h, ITT, LOCF
  change from baseline in adjusted TSB, Median: −11.15%
  change from baseline in unadjusted TSB, Mean (SD): 0.93 (1.990) mg/dL
  change from baseline in unadjusted TSB, Median: 1.20 mg/dL
  unadjusted TSB, Mean (SD): 10.52 (2.668) mg/dL
  unadjusted TSB, Median: 9.66 mg/dL
[1]
  change from baseline in adjusted TSB, LS mean (SEM): −11.59 (5.674) %
  change from baseline in adjusted TSB, LS mean difference versus placebo: −11.50%
  change from baseline in unadjusted TSB, LS Mean (SEM): 1.05 (0.665) mg/dL
  change from baseline in unadjusted TSB, LS Mean Difference versus placebo: -1.70 mg/dL
4.5 mg/kg IM, 24 h, ITT
  change from baseline in adjusted TSB, LS mean difference versus placebo, MMRM: −14.70%
  change from baseline in adjusted TSB, LS means (SEM), MMRM: −16.26 (5.495) %
[2]
  adjusted TSB, Mean (SD): −34.14 (14.733) %
  adjusted TSB, Median: −32.00%
4.5 mg/kg IM, 48 h, ITT, LOCF
  change from baseline in adjusted TSB, Mean (SD): −24.95 (19.261) %
  change from baseline in adjusted TSB, Median: −19.95%
  change from baseline in unadjusted TSB, Mean (SD): 0.80 (2.788) mg/dL
  change from baseline in unadjusted TSB, Median: 1.45 mg/dL
  unadjusted TSB, Mean (SD): 10.39 (2.650) mg/dL
  unadjusted TSB, Median: 10.35 mg/dL
[3]
  change from baseline in adjusted TSB, LS mean (SEM) (primary endpoint): −16.51 (6.925) %
  change from baseline in adjusted TSB, LS mean difference versus placebo: −14.93%
  change from baseline in unadjusted TSB, LS Mean (SEM): 1.60 (1.020) mg/dL
  change from baseline in unadjusted TSB, LS Mean Difference versus placebo: -2.63 mg/dL
4.5 mg/kg IM, 48 h, ITT, LOCF, ANCOVA, listed as stannsoporfin
  change from baseline in adjusted TSB, LS mean (SEM) (primary endpoint): 16.5%
4.5 mg/kg IM, 48 h, ITT
  change from baseline in adjusted TSB, LS mean difference versus placebo, MMRM: −20.66%
  change from baseline in adjusted TSB, LS means (SEM), MMRM: −27.34 (7.287) %
[4]
  total serum bilirubin: 10.39 ± 2.7
  total serum bilirubin, Delta (change from baseline): 0.80 ± 2.8
4.5 mg/kg IM, 48 hours, treated per protocol, preliminary data
  total serum bilirubin, Delta (change from baseline): 0.04 ± 3.1
4.5 mg/kg IM, 72 h/early termination, ITT, LOCF
  adjusted TSB, Mean (SD): −38.38 (16.637) %
4.5 mg/kg IM, 72 h, ITT, LOCF
  change from baseline in adjusted TSB, Mean (SD): −29.19 (19.225) %
  change from baseline in adjusted TSB, Median: −21.45%
  change from baseline in unadjusted TSB, Mean (SD): 0.15 (3.740) mg/dL
  change from baseline in unadjusted TSB, Median: 1.90 mg/dL
  unadjusted TSB, Mean (SD): 9.73 (3.672) mg/dL
  unadjusted TSB, Median: 11.15 mg/dL
[5]
  change from baseline in adjusted TSB, LS mean (SEM): −19.00 (8.184) %
  change from baseline in adjusted TSB, LS mean difference versus placebo: −14.25%
  change from baseline in unadjusted TSB, LS Mean (SEM): 1.38 (1.305) mg/dL
  change from baseline in unadjusted TSB, LS Mean Difference versus placebo: -3.57 mg/dL
[6]
  change from baseline in unadjusted TSB, Mean (SD): −4.28 (3.828) mg/dL
  change from baseline in unadjusted TSB, Median: -5.73 mg/dL
  unadjusted TSB, Mean (SD): 5.31 (4.596) mg/dL
  unadjusted TSB, Median: 2.98 mg/dL
[7]
  change from baseline in unadjusted TSB, LS Mean (SEM): −3.02 (1.524) mg/dL
  change from baseline in unadjusted TSB, LS Mean Difference versus placebo: -0.72 mg/dL
[8]
  48 Hours/Early termination change from baseline in unadjusted TSB, LS mean difference: -2.82 mg/dL
  P-value of LS mean difference, change from baseline in unadjusted TSB: 0.030
[9]
  48 Hours/Early termination change from baseline in unadjusted TSB, Max: 3.6 mg/dL
  48 Hours/Early termination change from baseline in unadjusted TSB, Mean (SD): 0.40 (3.111) mg/dL
  48 Hours/Early termination change from baseline in unadjusted TSB, Median: 0.70 mg/dL
  48 Hours/Early termination change from baseline in unadjusted TSB, Min: -3.4 mg/dL
  48 Hours/Early termination unadjusted TSB, Max: 13.4 mg/dL
  48 Hours/Early termination unadjusted TSB, Mean (SD): 9.88 (2.807) mg/dL
  48 Hours/Early termination unadjusted TSB, Median: 10.00 mg/dL
  48 Hours/Early termination unadjusted TSB, Min: 5.6 mg/dL
4.5 mg/kg, 48 Hours/Early termination, PP Population, LOCF, ANCOVA
  48 Hours/Early termination change from baseline in unadjusted TSB, LS mean (SEM): 1.11 (1.095) mg/dL
[10]
  6 hrs Percent Change from Baseline in TSB, Max: 26.4%
  6 hrs Percent Change from Baseline in TSB, Mean (SD): 17.33 (5.373) %
  6 hrs Percent Change from Baseline in TSB, Min: 10.7%
  6 hrs TSB, Max: 14.8 mg/dL
  6 hrs TSB, Mean (SD): 11.31 (2.237) mg/dL
  6 hrs TSB, Min: 7.6 mg/dL
[11]
  12 hrs Percent Change from Baseline in TSB, Max: 29.2%
  12 hrs Percent Change from Baseline in TSB, Mean (SD): 20.16 (6.326) %
  12 hrs Percent Change from Baseline in TSB, Min: 9.8%
  12 hrs TSB, Max: 14.8 mg/dL
  12 hrs TSB, Mean (SD): 11.54 (2.067) mg/dL
  12 hrs TSB, Min: 8.0 mg/dL
[12]
  24 hrs Percent Change from Baseline in TSB, Max: 43.8%
  24 hrs Percent Change from Baseline in TSB, Mean (SD): 10.75 (23.016) %
  24 hrs Percent Change from Baseline in TSB, Median: 12.15%
  24 hrs Percent Change from Baseline in TSB, Min: −14.8%
  24 hrs TSB, Max: 14.0 mg/dL
  24 hrs TSB, Mean (SD): 10.52 (2.668) mg/dL
  24 hrs TSB, Min: 7.7 mg/dL
[13]
  48 hrs Percent Change from Baseline in TSB, Max: 56.3%
  48 hrs Percent Change from Baseline in TSB, Mean (SD): 14.87 (33.167) %
  48 hrs Percent Change from Baseline in TSB, Min: −37.7%
  48 hrs TSB, Max: 13.4 mg/dL
  48 hrs TSB, Mean (SD): 10.69 (2.708) mg/dL
  48 hrs TSB, Min: 5.6 mg/dL
4.5 mg/kg, 14 days after treatment (text, not LOCF table)
  mean TSB levels: 2.94 mg/dL
[14]
  Baseline unadjusted TSB, Max: 12.8 mg/dL
  Baseline unadjusted TSB, Mean (SD): 9.47 (2.319) mg/dL
  Baseline unadjusted TSB, Median: 9.00 mg/dL
  Baseline unadjusted TSB, Min: 6.4 mg/dL
[15]
  Baseline TSB, Max: 12.8 mg/dL
  Baseline TSB, Mean (SD): 9.59 (1.911) mg/dL
  Baseline TSB, Min: 6.4 mg/dL
Bilirubin levels, FIG. 7
  time after administration at which an effect begins: 6 to 12 h
